Patent US20090149482A1, “STEREOCHEMICALLY DEFINED DIPEPTIDE ESTERS OF ANTIVIRAL AGENTS FOR ENHANCED OCULAR TREATMENT” (priority 2001, published 2009)
≈ marks a conversion by molar mass, not a printed value. Where “and” joins values, the source holds several entries; their conditions need not be identical. Equal entries are not always repeated. Where two headings read alike, the source gives them in different places.

Tests used:
[1] = target: T1, hPEPT1 (Homo sapiens, UniProt P46059); assay: [3H] Glycylsarcosine uptake and its inhibition in Caco-2 cells (affinity towards peptide transporter); type: cell-based; details: for Ki: read-out: Ki
T1 construct: endogenous in cells; host or cells: Caco-2 (human colon carcinoma, ATCC)
T1 sequence (P46059 1-708): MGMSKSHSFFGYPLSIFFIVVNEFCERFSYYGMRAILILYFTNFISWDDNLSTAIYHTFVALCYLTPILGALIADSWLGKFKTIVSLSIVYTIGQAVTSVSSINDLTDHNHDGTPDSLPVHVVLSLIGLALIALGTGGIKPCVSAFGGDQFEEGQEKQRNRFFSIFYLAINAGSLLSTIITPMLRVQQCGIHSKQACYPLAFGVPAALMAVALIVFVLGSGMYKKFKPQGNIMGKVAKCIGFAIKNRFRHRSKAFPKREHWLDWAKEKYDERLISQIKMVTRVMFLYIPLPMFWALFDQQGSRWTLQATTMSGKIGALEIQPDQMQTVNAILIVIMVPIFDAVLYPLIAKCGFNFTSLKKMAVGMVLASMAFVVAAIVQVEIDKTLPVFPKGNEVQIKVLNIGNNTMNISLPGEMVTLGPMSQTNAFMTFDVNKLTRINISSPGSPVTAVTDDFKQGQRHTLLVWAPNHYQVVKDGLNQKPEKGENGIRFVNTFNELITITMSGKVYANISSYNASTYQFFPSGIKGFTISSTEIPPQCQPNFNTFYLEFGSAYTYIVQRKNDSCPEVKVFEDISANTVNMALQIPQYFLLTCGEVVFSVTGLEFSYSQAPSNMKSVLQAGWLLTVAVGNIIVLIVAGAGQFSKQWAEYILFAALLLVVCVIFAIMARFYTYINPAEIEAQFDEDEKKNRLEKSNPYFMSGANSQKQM
From the text: Materials: [^3H] Glycylsarcosine (Gly-Sar; 4 Ci/mmol) was purchased from Moravek Biochemicals (Brea, Calif.) and [^14C] Mannitol (50 mCi/mmol) was supplied by Amersham (Piscataway, N.J.). Human colon carcinoma derived Caco-2 cells were obtained from American Type Culture Collection (ATCC, Rockville, Md.). The growth medium, Dulbecco's modified Eagle Medium was obtained from Life Technologies (Grand Island, N.Y.). […] Fetal bovine serum (FBS) was purchased from JRH Biosciences (Lenexa, Kans.). Culture flasks (75 cm^2 growth area), polyester Transwells® (pore size 0.4 Cm with diameter 6.5 mm) and polyester membranes (pore size 0.4 Cm) were procured from Costar (Bedford, Mass.). The buffer components and solvents were obtained from Fisher Scientific (St. Louis, Mo.). All the di-peptide esters of acyclovir were custom synthesized in our laboratory. […] Cell Culture: All cultures were maintained in humidified incubator at 37° C. with a 5% carbon dioxide in air atmosphere. Caco-2 cells were obtained at passage 25 from American Type Culture Collection (ATCC) and grown in plastic tissue culture flasks. […] When 80% confluent, these cells were removed by treating them with Trypsin/EDTA and plated at a density of 100,000 cells/cm^2 on collagen coated plastic dishes containing clear polyester membranes (0.636 cm^2, […]) or 12-well tissue culture treated plastic plates. Cells were then grown in medium containing 10% FBS (heat-inactivated). […] [^14C] […] Metabolism studies in Cell Suspensions: Confluent Caco-2 cells, grown in tissue culture flasks were isolated with the aid of mechanical scraper and washed thrice with DPBS. […] One-hundred micro-liters of samples were withdrawn at predetermined time intervals and the sample was purified by precipitating the cellular proteins into the organic solvent mixture and stored at −80° C. until further analysis. The protein content of the cell suspension was determined by the method of Bradford using bovine serum albumin as the standard (BioRad protein estimation kit, Hercules, Calif.). […] Transport studies: Transport experiments were done using Side-Bi-Side™ diffusion cells (type VSC-1, Crown Glass Company Inc.) and Transwell® inserts. Prior to the experiment with Gly-Sar, Caco-2 cell monolayers grown on the clear polyester membranes and Transwell® inserts were washed with DPBS (pH 6.0) and incubated at 37° C. Freshly prepared drug solutions in DPBS (pH 6.0) was placed in the donor chamber and the receiver chamber was filled with DPBS. The volumes of donor and receptor chambers were 3 ml each for Side-Bi-Side™ diffusion cells and 0.5 ml and 1.5 ml respectively for Transwell® inserts. […] The samples were stored at −80° C. until analyzed HPLC. All experiments were performed at 37° C. […] The concentration dependent uptake of glycylsarcosine was studied using [^3H] […] For Dixon plots and Dose Response studies [^3H] […] Following incubation, the cell monolayers were washed three times with ice-cold HEPES buffer to terminate the uptake experiment. After the washings cells were lysed overnight using 1 ml 0.1% (w/v) Triton X-100 in 0.3 N NaOH at room temperature. Aliquots (500 μl) from each well were then transferred to scintillation vials containing 5 ml scintillation cocktail (Fisher Scientific, Fairlawn, N.J.). […] The amount of protein in the cell lysate was measured by the BioRad protein estimation kit using bovine serum albumin as standard (BioRad Protein estimation Kit, Hercules, Calif.). Analytical Procedures: All samples were assayed using HPLC. […] The column used was a C18 Luna column 4.6×250 mm (Phenomenex). The mobile phase consisted of a mixture of buffer and an organic modifier. The percentage of organic phase was varied in order to elute compounds of interest.

[2] = system: HSV-1; assay: In vitro antiviral screening, CPE inhibition in HFF cells; type: cell-based, herpes simplex virus 1
[3] = system: EBV; assay: In vitro antiviral screening, VCA Elisa; type: cell-based, epstein-barr virus
[4] = system: HSV-2; assay: In vitro antiviral screening, CPE inhibition in HFF cells; type: cell-based, herpes simplex virus 2
[5] = system: rabbit corneal cell line (SIRC)
[6] = Aqueous solubility; type: physicochemical
[7] = in vitro; details: New Zealand albino, rabbit
[8] = New Zealand albino, rabbit
[9] = system: Caco-2 monolayers
[10] = system: HCMV; assay: In vitro antiviral screening, CPE inhibition in HFF cells; type: cell-based, human cytomegalovirus
[11] = rats, portal vein
[12] = rats, jugular vein
[13] = system: oligopeptide transporter on the rabbit cornea
[14] = system: VZV; assay: In vitro antiviral screening, CPE inhibition in HFF cells; type: cell-based, varicella zoster virus
[15] = system: human fibroblast foreskin cells (HFF)
[16] = system: Caco-2 cell suspension; details: Caco-2, pH 7.4
[17] = system: HSV-1 strain McKrae; assay: HSV-1 epithelial keratitis rabbit model, topical treatment, SLE scores; type: in vivo; details: 14 days post-inoculation, 1% topical 5 times per day
From the text: (§1) The rabbit eye is an excellent model to study acute HSV-1 epithelial keratitis. Also, spontaneous and induced ocular HSV-1 shedding and corneal epithelial disease in rabbits has been used as a model of human ocular HSV-1 reactivation and recurrence. HSV-1 strain McKrae was used in studies for epithelial keratitis. HSV-1 strain RE was used for studies of HSV stromal keratitis.
i) Epithelial Keratitis: A group of ten rabbits was used to study each compound. Both eyes of all rabbits were used. An aqueous vehicle (like a placebo) and one positive control were obtained using 1% TFT (Viroptic®). Each compound at 1% concentration (TFT=33 mM, Gly-Gly-ACV=26.6 mM, Val-Val-ACV=18.6 mM) were applied (50 μl) topically 5 times per day every two hours starting at 8:00 a.m. and ending at 4:00 p.m. The treatment began on the 3rd post-inoculation day and continued for 5 consecutive days. Slit-lamp examinations were performed once every day for 8 days and thereafter once every other day until lesions resolved.

[18] = system: HSV-1 strain RE; assay: HSV-1 stromal keratitis rabbit model, topical treatment, SLE scores; type: in vivo; details: 13 days post-inoculation, 1% topical
From the text: as §1
ii) Stromal Keratitis: The experiment is similar to the part (i) experiment as far as the treatment cycles for all experimental drugs (TFT and Val-Val-ACV) are concerned. The effect of Val-Val-ACV on stromal keratitis induced by intrastromal injection with a high (20 μl of a 1×10^7 pfu/ml stock) titer of HSV-1RE strain was compared to that of TFT. Each compound at 1% concentration (TFT=33 mM, Val-Val-ACV=18.6 mM) was applied topically. The same scoring as noted in Table 4 is used for stromal keratitis. Emphasis is placed on the stromal edema and visibility into the aqueous chamber and the visualization of the pupil and iris.
A group of ten rabbits were used to study each compound. Both eyes of all rabbits were treated. Three to four groups of 10 rabbits are used in one experiment. This includes vehicle control, TFT, and the newly synthesized antiviral Val-Val-ACV.

[19] = oral 20.0 mg/kg equivalent, total concentration in terms of ACV
[20] = oral, analyte amino acid intermediate

With `Nc1nc2c(ncn2COCCO)c(=O)[nH]1` [ACV, 2-amino-1,9-dihydro-9-[(2-hydroxyethoxy)methyl]-6H-purin-6-one] the “effect on the uptake of [3H] Gly-Sar” value ([1]; Caco-2, pH 6.0, 10 minutes) was “did not inhibit”, the EC50 ([2]; Human alphaherpesvirus 1, HFF, read-out: EC50 (concentration required to inhibit viral cytopathogenicity by 50%), HSV-1, CPE Inhibition) was 7.1 µM and the EC50 ([2]; Human alphaherpesvirus 1, HFF, HSV-1, running text, read-out: EC50 against HSV-1) was 7.1 µM. For the same compound, the EC50 ([3]; human gammaherpesvirus 4, EBV, VCA Elisa) was 7.5 µM, the EC50 ([4]; Human alphaherpesvirus 2, HFF, HSV-2, CPE Inhibition) was 6.6 µM and the percent survival ([5]; SIRC cells, 0.025 mM) was 94.71%. For the same compound, the percent survival ([5]; SIRC cells, 0.1 mM) was 89.41%, the percent survival ([5]; SIRC cells, 0.5 mM) was 69.81% and the percent survival ([5]; SIRC cells, 1 mM) was 57.37%. For the same compound, the “% viable cells” value ([5]; SIRC cells, 5 mM) was 49.1±4.2%, the percent survival ([5]; SIRC cells, 5 mM) was 49.12% and the solubility ([6]; 25° C.) was 2500 µg/mL (≈ 11.1 mM). For the same compound, the solubility ([6]; aqueous medium, 37° C., read-out: saturable solubility) was 2000 µg/mL (≈ 8.88 mM), the Papp [7] was 4.24 ± 1.41 ×10⁻⁶ cm/s and the Papp [8] was 4.24 ×10⁻⁶ cm/s.
With `CC(C)C(NC(=O)CN)C(=O)OCCOCn1cnc2c(=O)[nH]c(N)nc21` (stereo not drawn) [Gly-Val-ACV, Glycine-Valine-Acyclovir] the “Vmax of Gly-Sar uptake in presence of the drug” value ([1]; Gly-Sar with drug (10 mM), Lineweaver-Burk) was 0.095 ± 0.07 µmol/min/mg, the Ki ([1]; Lineweaver-Burk) was 1820 ± 340 µM and the Ki ([1]; Michaelis-Menten) was 1420 ± 240 µM. For the same compound, the “Vmax of concentration dependent transport” value [9] was 0.014±0.00058 moles cm^−2 min^−1, the “inhibition in transport in presence of Gly-Sar” value [9] was 63 % inhibition and the Papp ([9]; Caco-2, pH 6) was 2.80±0.59 ×10^−6 cm/sec. The Papp ([9]; Caco-2, pH 7.4) was 5.23±0.57 ×10^−6 cm/sec, the Km ([9]; read-out: Km of concentration dependent transport) was 3.16 ± 0.31 mM and the EC50 ([2]; read-out: EC50 (concentration required to inhibit viral cytopathogenicity by 50%)) was 12.6 µM. The EC50 [3] was 5.61 µM, the EC50 [4] was 22.7 µM and the “% viable cells” value [5] was 81.1±6.7%. For the same compound, the EC50 [10] was 59.5 µM, the “AUC(0-t)(TC)” value [11, 19] was 416.1 ± 140.9 µg·min/mL and the “AUCinf(TC)” value [11, 19] was 598.7 ± 164.1 µg·min/mL. For the same compound, the “Clast(TC)” value ([11]; oral) was 810 ± 120 ng/mL, the “Tmax(TC)” value ([11]; oral) was 0.357 ± 0.0962 h and the “AUC(0-t)(ACV)” value ([11]; oral, analyte acyclovir) was 347.8 ± 108.2 µg·min/mL. The “Cl(Acv)” value ([11]; oral, analyte acyclovir) was 12.5 ± 5.5 mL/min, the “Cmax(ACV)” value ([11]; oral, analyte acyclovir) was 4060 ± 1440 ng/mL and the “MRT(ACV)” value ([11]; oral, analyte acyclovir) was 1.07 ± 0.0892 h. The “AUC(0-t)(AA)” value [11, 20] was 143.6 ± 51.4 µg·min/mL, the “Cl(AA)” value [11, 20] was 31.9 ± 5.3 ml min^−1I and the “Cmax(AA)” value [11, 20] was 990 ± 540 ng/mL. The “Cmax(TC)” value ([11]; oral, total concentration in terms of ACV) was 4070 ± 1030 ng/mL, the “AUC(0-t)(CC)” value ([12]; oral 20.0 mg/kg equivalent) was 633.8 ± 115.5 µg·min/mL and the “AUCinf(CC)” value ([12]; oral 20.0 mg/kg equivalent) was 900.7 ± 74.8 µg·min/mL. For the same compound, the “Clast(CC)” value ([12]; oral) was 1100 ± 210 ng/mL, the “Cmax(CC)” value ([12]; oral) was 7200 ± 3300 ng/mL and the “Tmax(CC)” value ([12]; oral) was 0.37 ± 0.138 h. The “AUC(0-t)(ACV)” value ([12]; oral, analyte acyclovir) was 571.68 ± 99.22 µg·min/mL, the “Cl(ACV)” value ([12]; oral, analyte acyclovir) was 13.3 ± 3.5 mL/min and the “Cmax(ACV)” value ([12]; oral, analyte acyclovir) was 6900 ± 1500 ng/mL. The “MRT(ACV)” value ([12]; oral, analyte acyclovir) was 1.327 ± 0.1773 h, the “AUC(0-t)(AA)” value [12, 20] was 133.1 ± 48.2 µg·min/mL and the “Cl(AA)” value [12, 20] was 26.8 ± 4.5 mL/min. The “Papp (% Control) of [3H] Val-ACV” value [13] was 23.7 (±6.6) % Control, the EC50 [14] was 0.38 µM and the CC50 [15] was greater than 160 µM. The “10^2 × kobs” value [16] was 0.637 ± 0.01 min^−1mg^−1 protein and the t1/2 ([16]; human) was 1.802 ± 0.04 h.
Work on `O=c1[nH]c(=O)n([C@H]2C[C@H](O)[C@@H](CO)O2)cc1C(F)(F)F` [TFT, trifluorothymidine, reference compound] yielded a percent survival ([5]; SIRC cells, 0.025 mM) of 86.98%, a percent survival ([5]; SIRC cells, 0.1 mM) of 80.48% and a percent survival ([5]; SIRC cells, 0.5 mM) of 64.76%. The percent survival ([5]; SIRC cells, 1 mM) was 54.35%, the “% viable cells” value ([5]; SIRC cells, 5 mM) was 0.01% and 0.01±0.1% and the percent survival ([5]; SIRC cells, 5 mM) was 0.01%. The “Concentration required to achieve an SLE Score of 0.3” value [17] was 33.3 mM and the “Concentration required to achieve an SLE Score of 0.2” value [18] was 33.3 mM.
